In US5395836A, “8-tricycloalkyl xanthine derivatives” (Kyowa Hakko Kogyo Co., Ltd., priority 1993, dated 1995):

How the values were obtained:
[1] = Renal-protecting Effect (Glycerol-Induced Renal Failure Model); type: in vivo, rat (Wistar); conditions: for Amount of creatinine in blood serum / Amount of uria nitrogen in blood serum: ip, 24 h after glycerol
Experimental: A renal failure is a state where the renal function is lowered and the homeostasis of a body fluid can be no longer maintained. It is known that an acute renal failure characteristic of uriniferous tubule disorder is caused by subcutaneous or intramuscular injection of glycerol to rats [Can. J. Physiol.
Male Wistar rats were kept deprived of water for 18 hours, and served for the test. A test compound was intraperitoneally administered to the rats (dosage: 0.1 ml/100 g). After 30 minutes, the rats were anesthetized with ether and 50% glycerol was subcutaneously administered (dosage: 0.8 ml/100 g) to the rats, pinching the dorsal skin. Twenty four hours after the administration of glycerol, the rats were anesthetized with ether and 5 ml of blood was collected from the abdominal aorta. The collected blood was allowed to stand for 30 minutes or longer and then centrifuged at 3,000 rpm for 10 minutes, and the amounts of the serum creatinine and the serum urine-nitrogen (UN) were determined by auto analyzer (Olympus AU510) [creatinine test (Jaffe method), UN test (enzyme method); both tests were used in Olympus AU500/550 exclusive reagent […].

Diuretic Effect = type: in vivo, rat (Wistar); conditions: po, 4 hours; for Increase in amount of K+ excreted Δ(%) / Increase in amount of Na+ excreted Δ(%) / Increase in amount of urine Δ(%): control 0; for Na+/K+: control 1.00
Experimental: The experiment was performed by using Wistar rats (male; 150 to 300 g). The rats were starved for 18 hours prior to the administration of a test compound (n=4 to 5). After test compounds were dissolved in 0.4% methanol, 1% dimethylsulfoxide and 0.01N sodium hydroxide/physiological saline, and administered intravenously, the physiological saline (25 ml/kg) was orally administered. Alternatively, test compounds dissolved in the physiological saline (25 ml/kg) was orally administered to the rats. Urine was collected from the rats during 4 hours after the oral administration, and urine volume was measured by a graduated measuring cylinder, and the electrolytes in the urine (Na^+ and K^+) were determined by flame photometer (775 A manufactured by Hitachi, Ltd.).

adenosine A1 receptor = molecular target: T1, adenosine A1 receptor (Rattus norvegicus, UniProt P25099); experiment: Adenosine Receptor Antagonizing Activity (Adenosine A1 Receptor Binding Test); conditions: rat corpus striatum; 3H-CHA 1.1 nM; 25° C., 90 min; Cheng-Prusoff
T1 construct: from tissue; host or cells: rat corpus striatum, washed membrane suspension
T1 sequence (P25099 1-326): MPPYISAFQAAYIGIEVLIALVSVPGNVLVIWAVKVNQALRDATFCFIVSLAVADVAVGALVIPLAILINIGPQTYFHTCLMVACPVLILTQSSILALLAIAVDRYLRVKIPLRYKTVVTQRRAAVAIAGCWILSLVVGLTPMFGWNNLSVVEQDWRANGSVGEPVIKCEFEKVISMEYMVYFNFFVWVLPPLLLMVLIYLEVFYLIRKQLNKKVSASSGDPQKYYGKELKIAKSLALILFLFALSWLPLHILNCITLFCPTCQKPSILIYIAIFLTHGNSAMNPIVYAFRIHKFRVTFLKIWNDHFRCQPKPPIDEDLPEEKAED
Experimental: The test was conducted according to the method of Bruns et al. [Proc. Natl. Acad. Sci. U.S.A., 77., 5547 (1980)] with slight modification.
Corpus striatum of a rat was suspended in ice-cooled 50 mM Tris hydroxymethyl aminomethane hydrochloride (Tris HCl) buffer (pH 7.7) by using Polytron homogenizer (manufactured by Kinematicas Co.). The suspension was centrifuged (50,000×g, 10 minutes), and the precipitate was suspended again in the same amount of 50 mM Tris HCl buffer. The suspension was centrifuged under the same conditions, and the final precipitate was suspended once again in 50 mM Tris HCl buffer to give a tissue concentration of 100 mg (wet weight)/ml. The tissue suspension was allowed to stand in the presence of 0.02 unit/mg tissue of adenosine deaminase (manufacture by Sigma Co.) at 37° C. for 30 minutes. The tissue suspension was centrifuged (50,000×g, 10 minutes) and to the obtained precipitates was added 50 mM Tris HCl buffer to give a tissue concentration of 10 mg (wet weight)/ml.
To 1 ml of the tissue suspension thus prepared, were added 50 μl of cyclohexyladenosine labeled with tritium (^3 H-CHA: 27 Ci/mmol, manufactured by New England Nuclear) (final concentration: 1.1 nM), and 50 μl of a test compound. The resulting mixture was allowed to stand at 25° C. for 90 minutes and then rapidly filtered by suction through a glass fiber filter (GF/C, manufactured by Whatman Co.). The filter was immediately washed three times with 5 ml each of ice-cooled 50 mM Tris HCl buffer, and transferred to a vial, and scintillator (EX-H by Wako Pure Chemical Industries, Ltd.) was added thereto. The radioactivity on the filter was determined with a liquid scintillation counter (manufactured by Packard Instrument Co.).
The inhibition rate (Ki value) of the test compound against the binding of A1 receptors (^3 H-CHA binding) was calculated by the equation of Cheng-Prusoff. [formula]

[2] = 0.03 mg/kg, control 4.55 ± 0.24
[3] = 0.03 mg/kg, control 137.2 ± 5.0
[4] = 0.01 mg/kg, control 3.90 ± 0.24 (compounds 6, 7), 4.35 ± 0.23 (compound 3)
[5] = 0.01 mg/kg, control 124.9 ± 7.5 (compounds 6, 7), 139.7 ± 10.2 (compound 3)

SMILES	Amount of creatinine in blood serum [1, 2] [mg/dL]	Amount of uria nitrogen in blood serum [1, 3] [mg/dL]	Increase in amount of K+ excreted Δ(%) (Diuretic Effect; 0.01 mg/kg)	Increase in amount of Na+ excreted Δ(%) (Diuretic Effect; 0.01 mg/kg)	Increase in amount of urine Δ(%) (Diuretic Effect; 0.01 mg/kg)	Na+/K+ (Diuretic Effect; 0.01 mg/kg)	Increase in amount of K+ excreted Δ(%) (Diuretic Effect; 1.6 mg/kg)	Increase in amount of Na+ excreted Δ(%) (Diuretic Effect; 1.6 mg/kg)	Increase in amount of urine Δ(%) (Diuretic Effect; 1.6 mg/kg)	Na+/K+ (Diuretic Effect; 1.6 mg/kg)	Ki (adenosine A1 receptor) [nM]	Increase in amount of K+ excreted Δ(%) (Diuretic Effect; 0.1 mg/kg)	Increase in amount of Na+ excreted Δ(%) (Diuretic Effect; 0.1 mg/kg)	Increase in amount of urine Δ(%) (Diuretic Effect; 0.1 mg/kg)	Na+/K+ (Diuretic Effect; 0.1 mg/kg)	other results
CCCn1c(=O)c2[nH]c(C34C[C@H]5CC3C[C@@H](C4)[C@H]5O)nc2n(CCC)c1=O (relative stereo) [Compound 4, 8-(cis-9-hydroxy-3tricyclo[3.3.1.0^3,7]nonyl)-1,3-dipropylxanthine]	2.32 ± 0.48	75.6 ± 13.9	43	167	200	1.86	35	180	232	2.07	0.31	–	–	–	–	–
CCCn1c(=O)c2[nH]c(C34CC5CC3CC(C4)C5=O)nc2n(CCC)c1=O [Compound 1, 8-(9-Oxo-3-tricyclo[3.3.1.0^3,7]nonyl)-1,3-dipropylxanthine]	2.51 ± 0.41	81.4 ± 15.9	37	144	149	1.78	36	193	258	2.15	0.37	–	–	–	–	–
CCCn1c(=O)c2[nH]c(C34CC5CC(C3)C(=O)C4C5)nc2n(CCC)c1=O (stereo not shown) [Compound 2, 8-(6-Oxo-3-tricyclo[3.3.1.0^3,7]nonyl)-1,3-dipropylxanthine]	2.51 ± 0.24	85.0 ± 8.7	–	–	–	–	8	188	241	2.67	0.59	32	177	211	2.10	–
CCCn1c(=O)c2[nH]c(C34CC5CC(C3)C(O)C4C5)nc2n(CCC)c1=O (stereo not drawn) [Compound 5, 8-(Trans-6-hydroxy-3-tricyclo[3.3.1.0^3,7]nonyl)-1,3-dipropylxanthine]	–	–	–	–	–	–	–	–	–	–	0.24	–	–	–	–	Amount of creatinine in blood serum ([1]; 0.1 mg/kg, control 4.55 ± 0.24 (compound 5), 4.35 ± 0.23 (compound 3)): 2.34 ± 0.24 mg/dL; Amount of uria nitrogen in blood serum ([1]; 0.1 mg/kg, control 137.2 ± 5.0 (compound 5), 139.7 ± 10.2 (compound 3)): 74.4 ± 7.7 mg/dL
CCCn1c(=O)c2[nH]c(C34CC5CC(CC3C5)C4)nc2n(CCCO)c1=O [Compound 6, 3-(3-Hydroxypropyl)-8-(3-tricyclo[3.3.1.0^3,7]nonyl)-1-propylxanthine]	–	–	–	–	–	–	–	–	–	–	0.96	24	276	396	3.03	Amount of creatinine in blood serum [1, 4]: 2.23 ± 0.15 mg/dL; Amount of uria nitrogen in blood serum [1, 5]: 65.4 ± 5.6 mg/dL; Increase in amount of K+ excreted Δ(%) (Diuretic Effect; 0.025 mg/kg): 5.1%; Increase in amount of Na+ excreted Δ(%) (Diuretic Effect; 0.025 mg/kg): 111%; Increase in amount of urine Δ(%) (Diuretic Effect; 0.025 mg/kg): 134%; Na+/K+ (Diuretic Effect; 0.025 mg/kg): 2.00
CCCn1c(=O)c2[nH]c(C34CC5CC(CC3C5)C4)nc2n(CC(C)O)c1=O (stereo not shown) [Compound 7, 3-(2-hydroxypropyl) -8-(3tricyclo[3.3.1.0^3,7]nonyl)-1-propylxanthine]	–	–	33	97	140	1.48	–	–	–	–	6.1	23	138	200	1.93	Amount of creatinine in blood serum [1, 4]: 2.28 ± 0.22 mg/dL; Amount of uria nitrogen in blood serum [1, 5]: 70.0 ± 9.8 mg/dL
CCCn1c(=O)c2[nH]c(C34CC5CC(CC(O)(C5)C3)C4)nc2n(CCC)c1=O [Compound 8, 8-(3-Hydroxy-1-tricyclo[3.3.1.1^3,7]decyl)-1,3-dipropylxanthine]	–	–	–	–	–	–	–	–	–	–	5.1	–	–	–	–	–
Cn1c(=O)c2[nH]cnc2n(C)c1=O [aminophylline, reference compound]	–	–	–	–	–	–	–	–	–	–	–	–	–	–	–	effect of suppressing the increase ([1]; i.p., 10 mg/kg): weak effect of suppressing the increase
NS(=O)(=O)c1cc(C(=O)O)c(NCc2ccco2)cc1Cl [furosemide, reference compound]	–	–	–	–	–	–	–	–	–	–	–	–	–	–	–	effect on serum creatinine ([1]; i.p., 10 mg/kg): tendency to increase the serum creatinine
